Experimental data from patent US10925921B2, “Fermented Pennisetum extract” (Sagittarius Life Science Corp., priority 2016, dated 2021).

Assays:
Format in all cases: in vivo, BALB/c nu/nu mice
[1] = test system: human lung adenocarcinoma cell line, NCl-H441; test: Tumor growth assay in orthotopic lung model, IVIS bioluminescence; settings: docetaxel 2.5 mg/kg, from the fourth week
Method: FIGS. 3(A) and (B) show the inhibitory effect of PPE on tumor growth of orthotropic lung tumor-bearing BALB/c nude mice. H441-luc were orthotopically injected into the lung of mice at a concentration of 0.8×10^6 cells/70 μL PBS. PPE treatments (three dosages 25, 50, and […].) twice a week by intraperitoneal injection into tumor-bearing animals over a period of 4 weeks. (A) Representative non-invasive bioluminescence images show tumor progression of mice in orthtopic model. (B) Bar graphs were quantified by Living Image analysis software (n=8-10). Data were analyzed by Student's t-test and are shown as mean±SD*P<0.05 compared with control. § P<0.05 compared with week 4 tumor group;
Male BALB/c nu/nu mice were used in the orthotopic model and divided into five groups, control group (5 mice), tumor group (10 mice), three experimental groups (25-PPE, 50-PPE and 100-PPE) (each group for 10 mice) and docetaxel group (8 mice). […]
The mice were injected with the cell solution of human lung adenocarcinoma cell line, NCl-H441, in matrigel (0.8×10^6 cells/70 μL/mice). […] The tumor growth was monitored by Non Invasion In Vivo Imaging System (IVIS).

[2] = test system: human lung adenocarcinoma cell line, NCl-H441; test: Survival (Kaplan-Meier) in orthotopic lung tumor-bearing mice; settings: docetaxel 2.5 mg/kg b.w., orthotopic model
Method: Male BALB/c nu/nu mice were used in the orthotopic model and divided into five groups, control group (5 mice), tumor group (10 mice), three experimental groups (25-PPE, 50-PPE and 100-PPE) (each group for 10 mice) and docetaxel group (8 mice). The mice of the control group and the tumor group were subjected to intraperitoneal injection (i.p.) with vehicle, while 10 mice of each of the experimental groups, 25-PPE group (25 mg/kg of PPE), 50-PPE group (50 mg/kg of PPE) and 100-PPE group (100 mg/kg of PPE), were i.p. administered with 25 mg/kg of PPE, 50 mg/kg of PPE and 100 mg/kg of PPE obtained in Example 1, respectively, and 8 mice of the docetaxel group were administered with 2.5 mg/kg of docetaxel.
The mice were injected with the cell solution of human lung adenocarcinoma cell line, NCl-H441, in matrigel (0.8×10^6 cells/70 μL/mice). Three days after injections, the PPEs at the above-mentioned doses were i.p. administered to the mice twice every two weeks. The tumor growth was monitored by Non Invasion In Vivo Imaging System (IVIS).

[3] = test system: human lung adenocarcinoma cell line, NCl-H441; test: Computed tomography (CT) lung screening assay in orthotopic model; settings: docetaxel 2.5 mg/kg, fourth week; tumor group 11.1+/−2.8%
Excerpt: FIGS. 5(A) and (B) show the inhibitory effects of PPE on analysis of tumor volume in orthotopic model. (A) The micro-CT images and quantitative end-points for lung tumor growth. Longitudinal and transverse micro-CT images of tumor growth in control and treatment of PPE. Each tumor scanned by micro-CT was reconstructed to three-dimensional images (axial, sagittal, and coronal), and diameters measured periodically as indicated. Data represent presence of tumor value in each group. (B) The tissue of lung lesions in nude mice. Representative lung tumor formed in different group. Tumors observed in the lungs are indicated with a yellow arrow;
In the orthotopic model of Example 3, the mice were subjected to CT lung screening to detect the tumor size in lung at the fourth week. The tumor accounts for 11.1+/−2.8% of the lung in the tumor group, 10.1+/−3.9% in the 25-PPE group, 9.3+/−1.4% in the 50-PPE group, 7.5+/−2.3% in the 100-PPE group and 8.0+/−1.1% in the docetaxel group (see FIG. 5).

Structure (SMILES): CC(=O)O[C@@]12CO[C@@H]1C[C@H](O)[C@@]1(C)C(=O)[C@H](O)C3=C(C)[C@@H](OC(=O)[C@H](O)[C@@H](NC(=O)OC(C)(C)C)c4ccccc4)C[C@@](O)([C@@H](OC(=O)c4ccccc4)[C@H]21)C3(C)C [docetaxel]
- tumor bioluminescence (IVIS) [1]: 0.5+/−0.07×10^7 photons/sec
- lifespan, Kaplan-Meier cumulative survival analysis [2]: significant (p<0.05) increase in lifespan
- tumor share of the lung (CT tumor volume ratio) [3]: 8.0+/−1.1%
